Reference: patent US10189809B2, “SGC stimulators” (Ironwood Pharmaceuticals, Inc., priority 2010, dated 2019)
Read-outs that look alike come from different tables or passages of the source.

Key:
[1] = target: soluble guanylate cyclase (sGC) (Homo sapiens (Human), UniProt Q02108+Q02153); assay: sGC-HEK-cGMP assay run with SNP incubation (HEK WC assay); type: cell-based
Summary of the method: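 HEK293 cells with endogenous sGC were pretreated with 0.5 mM IBMX for 15 min at 37 °C, then exposed to test compound plus sodium nitroprusside for 10 min at 37 °C.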

[2] = target: T1, Human soluble guanylate cyclase enzyme (hsGC) (Homo sapiens (Human), UniProt Q02108+Q02153); assay: Purified human sGC enzyme activity assay; type: biochemical; conditions: for sGC Enzyme (specific activity at 10 μM) / sGC Enzyme (fold increase at 10 μM without SNP): 10 μM compound; for sGC Enzyme (specific activity at 30 μM) / sGC Enzyme (fold increase at 30 μM without SNP) / sGC Enzyme (fold increase at 30 μM): 30 μM compound; for sGC Enzyme (fold increase at 30 μM): without the addition of SNP
T1 sequence (Q02153 whole entry): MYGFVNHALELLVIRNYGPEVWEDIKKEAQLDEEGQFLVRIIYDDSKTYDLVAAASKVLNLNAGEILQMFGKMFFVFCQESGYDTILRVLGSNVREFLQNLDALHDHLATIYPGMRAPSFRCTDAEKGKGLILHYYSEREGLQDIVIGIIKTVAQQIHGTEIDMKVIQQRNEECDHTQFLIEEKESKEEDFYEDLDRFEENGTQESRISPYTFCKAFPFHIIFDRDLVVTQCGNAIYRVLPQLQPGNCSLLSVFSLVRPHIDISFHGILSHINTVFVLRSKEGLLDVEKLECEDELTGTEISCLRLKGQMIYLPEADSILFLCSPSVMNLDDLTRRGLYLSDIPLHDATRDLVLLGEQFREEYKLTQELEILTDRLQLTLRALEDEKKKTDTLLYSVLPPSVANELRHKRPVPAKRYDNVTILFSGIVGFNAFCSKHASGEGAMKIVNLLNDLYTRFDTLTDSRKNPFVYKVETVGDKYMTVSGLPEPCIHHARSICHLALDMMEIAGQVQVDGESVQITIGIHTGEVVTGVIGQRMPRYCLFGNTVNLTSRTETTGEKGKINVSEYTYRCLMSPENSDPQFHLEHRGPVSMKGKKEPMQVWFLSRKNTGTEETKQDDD
T1 sequence (Q02108 whole entry): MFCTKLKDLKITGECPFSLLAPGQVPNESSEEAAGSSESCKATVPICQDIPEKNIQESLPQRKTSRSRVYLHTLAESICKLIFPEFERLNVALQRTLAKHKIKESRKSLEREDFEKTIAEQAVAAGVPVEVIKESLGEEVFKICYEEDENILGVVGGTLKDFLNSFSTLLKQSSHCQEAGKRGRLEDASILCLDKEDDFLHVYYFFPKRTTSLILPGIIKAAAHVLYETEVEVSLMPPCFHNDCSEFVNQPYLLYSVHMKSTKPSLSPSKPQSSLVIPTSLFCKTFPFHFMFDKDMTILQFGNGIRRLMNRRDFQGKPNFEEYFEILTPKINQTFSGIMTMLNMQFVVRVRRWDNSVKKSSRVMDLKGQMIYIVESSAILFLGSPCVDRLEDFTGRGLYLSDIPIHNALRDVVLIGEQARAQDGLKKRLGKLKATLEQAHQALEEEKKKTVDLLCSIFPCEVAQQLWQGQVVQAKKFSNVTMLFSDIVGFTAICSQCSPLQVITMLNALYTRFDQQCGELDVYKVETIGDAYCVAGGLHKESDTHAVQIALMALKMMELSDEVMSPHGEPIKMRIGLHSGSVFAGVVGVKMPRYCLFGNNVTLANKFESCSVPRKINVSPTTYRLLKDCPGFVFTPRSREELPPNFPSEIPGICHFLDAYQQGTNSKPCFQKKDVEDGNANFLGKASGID
Summary of the method: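 Purified human sGC (5 ng) incubated 30 min at 37° C with compound at 10 or 30 μM final in pH 8.0 Tris with 300 μM GTP, 2 mM MgCl2, 2 mM DTT and 1 mM IBMX, then stopped with cold methanol. cGMP quantified against a standard curve. Specific activity (nmol cGMP/mg sGC/min) expressed as fold-change over DMSO control.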

[3] = target: T1, Human soluble guanylate cyclase enzyme (hsGC); assay: Purified human sGC enzyme synergy assay in the presence of 1 μM sodium nitroprusside (SNP); type: biochemical; conditions: for sGC Enzyme (fold increase at 10 μM with SNP): 10 μM compound; for sGC Enzyme (fold increase at 30 μM with SNP): 30 μM compound
Procedure: Human soluble guanylate cyclase enzyme (hsGC) obtained from Enzo Inc. (P/N: ALX-201-177) was used to evaluate the activity of test compounds. The assay reactions contained 0.1 M Tris (pH 8.0), 0.5 mg/mL BSA (pH 8.0), 2 mM DTT, 2 mM MgCl2, 300 μM GTP, 1 mM 3-isobutyl-1-methylxanthine (IBMX) and 5 ng human soluble guanylate cyclase enzyme. Test compounds in DMSO were then added (2 μL, 10 or 30 μM final concentration) and incubated (200 μL, 96-well plate format) at 37° C. for 30 minutes. The controls were carried out using 2 μL DMSO. After the 30 minute incubation, the reaction was stopped with the addition of 200 μL of cold methanol. The plate was then centrifuged at 3,200 rpm for 10 minutes at room temperature. Supernatants (200 μL) were collected and transferred to a new 96 well plate for analysis.
An 8 point cGMP (Sigma-Aldrich P/N: G6129) standard curve was prepared in assay buffer ranging from 0.156-20 μM. Samples for the cGMP standard curve were then diluted with an equal volume of methanol resulting in final cGMP concentrations of 0.078-10 μM.
The cGMP standard curve was generated using GraphPad Prism Software.
Calculations: Specific Activity was determined by the amount of cGMP formed (nmoles) per mg of sGC per min. Enzyme “fold-change” was calculated by dividing Specific Activity for test compounds by Specific Activity of DMSO controls.
Enzyme assays were performed as described above, but was done in the presence of 1 μM sodium nitroprusside (SNP).

[4] = read-out: HEK WC Assay (% Emax at 10 uM/with 10 uM SNP)
[5] = read-out: HEK WC Assay (% Emax at 30 uM/with 10 uM SNP)
[6] = read-out: HEK WC Assay (% Emax at 10 μM/with 10 uM SNP)
[7] = read-out: HEK WC Assay (% Emax at 30 μM/with 10 uM SNP)

soluble guanylate cyclase (sGC), sequence (Q02153 whole entry): as the sequence (Q02153 whole entry) above
soluble guanylate cyclase (sGC), sequence (Q02108 whole entry): as the sequence (Q02108 whole entry) above

Compound | Emax at 10 µM [1, 4] | Emax at 30 µM [1, 5] | sGC Enzyme (specific activity at 10 μM) [2] | sGC Enzyme (fold increase at 10 μM without SNP) [2] | sGC Enzyme (specific activity at 30 μM) [2] | sGC Enzyme (fold increase at 30 μM without SNP) [2] | sGC Enzyme (fold increase at 10 μM with SNP) ([3]; with 1 μM SNP) | sGC Enzyme (fold increase at 30 μM with SNP) ([3]; with 1 μM SNP) | Emax at 10 µM [1, 6] | Emax at 30 µM [1, 7] | sGC Enzyme (fold increase at 30 μM) [2] | sGC Enzyme (fold increase at 30 μM with SNP) ([3]; with the addition of SNP)
Cc1ccc(-c2c(Br)c(-c3ccccn3)nn2Cc2ccccc2F)cc1 [Compound I-67] | 0 to 10% | 0 to 10% | C (C = 100 to <200) | A (A = no increase to <2 fold increase) | D (D = 200 to <500) | A (A = no increase to <2 fold increase) | A (A = no increase to <2 fold increase) | A (A = no increase to <2 fold increase) |  |  |  | 
COC(=O)N(C)c1c(N)nc(-c2cc(-c3ccccn3)n(Cc3ccccc3F)n2)nc1N [Compound I-88] |  |  |  |  |  |  |  |  | 0 to 10% | 0 to 10% | A (A = no increase to <2 fold increase) | A (A = no increase to <2 fold increase)
Fc1ccccc1Cn1nc(-c2ncccn2)cc1-c1ncccn1 [Compound I-13] | 0 to 10% | 0 to 10% | B (B = 50 to <100) | A (A = no increase to <2 fold increase) | C (C = 100 to <200) | A (A = no increase to <2 fold increase) | A (A = no increase to <2 fold increase) | A (A = no increase to <2 fold increase) |  |  |  | 
Cc1cc(-c2ccccn2)nn1Cc1ccccc1F [Compound I-55] | 10 to 20% | 20 to 40% |  | A (A = no increase to <2 fold increase) |  | B (B = 2 to <5 fold increase) | B (B = 2 to <5 fold increase) | B (B = 2 to <5 fold increase) |  |  |  | 
Fc1ccccc1Cn1nc(-c2ccccn2)c(Br)c1-c1ccccn1 [Compound I-62] | 0 to 10% | 0 to 10% | B (B = 50 to <100) | A (A = no increase to <2 fold increase) | B (B = 50 to <100) | A (A = no increase to <2 fold increase) | A (A = no increase to <2 fold increase) | A (A = no increase to <2 fold increase) |  |  |  | 
Fc1ccccc1Cn1nc(-c2ncccn2)cc1-c1ccccc1F [Compound I-59] | 0 to 10% | 0 to 10% | B (B = 50 to <100) | B (B = 2 to <5 fold increase) | C (C = 100 to <200) | B (B = 2 to <5 fold increase) | B (B = 2 to <5 fold increase) | C (C = 5 to <10 fold increase) |  |  |  | 
Fc1ccccc1Cn1nc(-c2ccccn2)c(I)c1-c1ccccn1 [Compound I-53] | 0 to 10% | 0 to 10% |  | A (A = no increase to <2 fold increase) |  | A (A = no increase to <2 fold increase) | A (A = no increase to <2 fold increase) | A (A = no increase to <2 fold increase) |  |  |  | 
Cc1cccc(-c2cc(-c3ccccn3)nn2Cc2ccccc2F)c1 [Compound I-22] | 0 to 10% | 0 to 10% | C (C = 100 to <200) | A (A = no increase to <2 fold increase) | C (C = 100 to <200) | B (B = 2 to <5 fold increase) | A (A = no increase to <2 fold increase) | A (A = no increase to <2 fold increase) |  |  |  | 
Fc1ccccc1Cn1nc(-c2ccccn2)c(Cl)c1-c1ccccn1 [Compound I-63] | 0 to 10% | 0 to 10% | B (B = 50 to <100) | A (A = no increase to <2 fold increase) | B (B = 50 to <100) | A (A = no increase to <2 fold increase) | A (A = no increase to <2 fold increase) | A (A = no increase to <2 fold increase) |  |  |  | 
Fc1ccccc1Cn1nc(-c2ccccn2)c(Br)c1C1CCC1 [Compound I-64] | 0 to 10% | 0 to 10% | A (A = 0 to <50) | A (A = no increase to <2 fold increase) | B (B = 50 to <100) | A (A = no increase to <2 fold increase) | A (A = no increase to <2 fold increase) | B (B = 2 to <5 fold increase) |  |  |  | 
Fc1ccccc1Cn1nc(-c2ccccn2)cc1C1CCCCC1 [Compound I-48] | 0 to 10% | 0 to 10% | D (D = 200 to <500) | B (B = 2 to <5 fold increase) | E (E = 500 to <1000) | B (B = 2 to <5 fold increase) | B (B = 2 to <5 fold increase) | C (C = 5 to <10 fold increase) |  |  |  | 
COc1cccc(-c2cc(-c3ccccn3)nn2Cc2ccccc2F)n1 [Compound I-25, 2-(1-(2-fluorobenzyl)-3-(pyridin-2-yl)-1H-pyrazol-5-yl)-6-methoxypyridine] | 0 to 10% | 10 to 20% | C (C = 100 to <200) | A (A = no increase to <2 fold increase) | D (D = 200 to <500) | A (A = no increase to <2 fold increase) | B (B = 2 to <5 fold increase) | C (C = 5 to <10 fold increase) |  |  |  | 

Other lines, results leading:

Emax at 10 µM [1, 4] | Emax at 30 µM [1, 5] | sGC Enzyme (specific activity at 10 μM) [2] | sGC Enzyme (fold increase at 10 μM without SNP) [2] | sGC Enzyme (specific activity at 30 μM) [2] | sGC Enzyme (fold increase at 30 μM without SNP) [2] | sGC Enzyme (fold increase at 10 μM with SNP) ([3]; with 1 μM SNP) | sGC Enzyme (fold increase at 30 μM with SNP) ([3]; with 1 μM SNP) | Emax at 10 µM [1, 6] | Emax at 30 µM [1, 7] | sGC Enzyme (fold increase at 30 μM) [2] | sGC Enzyme (fold increase at 30 μM with SNP) ([3]; with the addition of SNP) | Compound
 |  |  |  |  |  |  |  | 60 to 80% | 40 to 60% | B (B = 2 to <5 fold increase) | C (C = 5 to <10 fold increase) | Nc1nc(-c2cc(-c3ccon3)n(Cc3ccccc3F)n2)ncc1-c1ccccn1 [Compound I-128]
 |  |  |  |  |  |  |  | 0 to 10% | 0 to 10% | A (A = no increase to <2 fold increase) | B (B = 2 to <5 fold increase) | CC(=O)Nc1c(N)nc(-c2cc(-c3nccs3)n(Cc3ccccc3F)n2)nc1N [Compound I-94]
 |  |  |  |  |  |  |  | 10 to 20% | 20 to 40% | A (A = no increase to <2 fold increase) | C (C = 5 to <10 fold increase) | Cc1nc2c(N)nc(-c3cc(-c4nccs4)n(Cc4ccccc4F)n3)nc2[nH]1 [Compound I-95]
 |  |  |  |  |  |  |  | 0 to 10% | 10 to 20% | B (B = 2 to <5 fold increase) | C (C = 5 to <10 fold increase) | Fc1ccccc1Cn1nc(-c2ncccn2)cc1-c1ccc(Cl)s1 [Compound I-91]
 |  |  |  |  |  |  |  | 20 to 40% | 20 to 40% | B (B = 2 to <5 fold increase) | C (C = 5 to <10 fold increase) | Nc1cc(-c2cccnc2)nc(-c2cc(-c3ccon3)n(Cc3ccccc3F)n2)n1 [Compound I-116]
 |  |  |  |  |  |  |  | 20 to 40% | 20 to 40% | A (A = no increase to <2 fold increase) | B (B = 2 to <5 fold increase) | Nc1cc(N)nc(-c2cc(-c3ccon3)n(Cc3ccccc3F)n2)n1 [Compound I-103, 2-(1-(2-fluorobenzyl)-5-(isoxazol-3-yl)-1H-pyrazol-3-yl)pyrimidine-4,6-diamine]
 |  |  |  |  |  |  |  | 10 to 20% | 20 to 40% | B (B = 2 to <5 fold increase) | C (C = 5 to <10 fold increase) | COC(=O)Nc1c(N)nc(-c2cc(-c3nccs3)n(Cc3ccccc3F)n2)nc1N [Compound I-93]
